Columns and labels:
[1] = system: slender amaranth (Am); assay: Test Example 7: crop plant selectivity by upland field soil treatment (corn), herbicidal effects; assay type: in vivo; design: scale not given here; conditions: 21st day after application
Summary of the method: (§1)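 Corn and weeds (green foxtail, pale smartweed, slender amaranth, common lambsquarters, China jute) sown in sand-filled pots, covered with soil and treated by soil application. Grown in a greenhouse; herbicidal effect and crop phytotoxicity scored on day 21 after application using a fixed rating scale.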

[2] = system: common lambsquarters (Ch); assay: as above; assay type: in vivo; design: scale not given here; conditions: 21st day after application
Summary of the method: as §1

[3] = system: green foxtail (Se); assay: as above; assay type: in vivo; design: scale not given here; conditions: 21st day after application
Summary of the method: as §1

[4] = system: pale smartweed (Po); assay: as above; assay type: in vivo; design: scale not given here; conditions: 21st day after application
Summary of the method: as §1

[5] = system: China jute (Ab); assay: as above; assay type: in vivo; design: scale not given here; conditions: 21st day after application
Summary of the method: as §1

[6] = system: corn (Ze); assay: Test Example 7: crop plant selectivity by upland field soil treatment (corn), phytotoxicity; assay type: in vivo; design: scale not given here; conditions: 21st day after application
Summary of the method: as §1

[7] = system: wheat (Tr); assay: Test Example 5: crop plant selectivity by upland field soil treatment (wheat), phytotoxicity; assay type: in vivo; design: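 grade of crop injury; 5 = at least 90%; 4 = 70 to 90%; 3 = 50 to 70%; 2 = 30 to 50%; 1 = 10 to 30%; 0 = under 10%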; conditions: 21st day after application
Summary of the method: (§2)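 Pots of sand sown with wheat and weeds (incl. Digitaria ciliaris, green foxtail, slender amaranth), seeds covered with soil, soil-applied treatment. Grown in greenhouse; herbicidal effect and crop phytotoxicity scored visually on day 21 after application against a rating scale.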

[8] = system: barnyardgrass (Ec); assay: Test Example 1: herbicidal effects by paddy field soil treatment; assay type: in vivo; conditions: 100 g of the active ingredient per 10 ares, 21st day after the application, index 0-5 of Table 47;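 further: grade of growth control; 5 = at least 90%; 4 = 70 to 90%; 3 = 50 to 70%; 2 = 30 to 50%; 1 = 10 to 30%; 0 = under 10%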
Summary of the method: (§3)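 Scoring of herbicidal effect came 21 days after application of 100 g active ingredient per 10 ares to flooded (3 cm) paddy-soil pots sown with barnyardgrass, monochoria and bulrush, kept in a greenhouse.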

[9] = system: bulrush (Sc); assay: as above; assay type: in vivo; conditions: 100 g of the active ingredient per 10 ares, 21st day after the application, index 0-5 of Table 47;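 further: grade of growth control; 5 = at least 90%; 4 = 70 to 90%; 3 = 50 to 70%; 2 = 30 to 50%; 1 = 10 to 30%; 0 = under 10%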
Summary of the method: as §3

[10] = system: monochoria (Mo); assay: as above; assay type: in vivo; conditions: 100 g of the active ingredient per 10 ares, 21st day after the application, index 0-5 of Table 47;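 further: grade of growth control; 5 = at least 90%; 4 = 70 to 90%; 3 = 50 to 70%; 2 = 30 to 50%; 1 = 10 to 30%; 0 = under 10%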
Summary of the method: as §3

[11] = system: wheat (Tr); assay: Test Example 9: crop plant selectivity by upland field foliage treatment (wheat), phytotoxicity; conditions: dose 1.6 g ai/10a, 14th day after treatment;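 further: grade of crop injury; 5 = at least 90%; 4 = 70 to 90%; 3 = 50 to 70%; 2 = 30 to 50%; 1 = 10 to 30%; 0 = under 10%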
Summary of the method: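 Wheat and weeds sown in sand-filled pots, grown 2 weeks in a greenhouse, then foliage-treated. Herbicidal effect and crop phytotoxicity were scored 14 days after treatment against a rating scale.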

[12] = system: China jute (Ab); assay: Test Example 5: crop plant selectivity by upland field soil treatment (wheat), herbicidal effects; assay type: in vivo; design: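 grade of growth control; 5 = at least 90%; 4 = 70 to 90%; 3 = 50 to 70%; 2 = 30 to 50%; 1 = 10 to 30%; 0 = under 10%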; conditions: 21st day after application
Summary of the method: as §2

| SMILES | Herbicidal effects Am ([1]; dose 6.3 g ai/10a) | Herbicidal effects Ch ([2]; dose 6.3 g ai/10a) | Herbicidal effects Se ([3]; dose 6.3 g ai/10a) | Herbicidal effects Po ([4]; dose 6.3 g ai/10a) | Herbicidal effects Ab ([5]; dose 6.3 g ai/10a) | Phytotoxicity Ze ([6]; dose 6.3 g ai/10a) | Phytotoxicity Tr ([7]; dose 6.3 g ai/10a) | Herbicidal effects Ec [8] | Herbicidal effects Sc [9] | Herbicidal effects Mo [10] | Phytotoxicity Tr [11] | Herbicidal effects Ab ([12]; dose 6.3 g ai/10a) | Herbicidal effects Am ([1]; dose 1.6 g ai/10a) | Herbicidal effects Ch ([2]; dose 1.6 g ai/10a) | Herbicidal effects Se ([3]; dose 1.6 g ai/10a) | Herbicidal effects Po ([4]; dose 1.6 g ai/10a) | Herbicidal effects Ab ([5]; dose 1.6 g ai/10a) | Phytotoxicity Ze ([6]; dose 1.6 g ai/10a) | Phytotoxicity Tr ([7]; dose 1.6 g ai/10a) | Herbicidal effects Ab ([12]; dose 1.6 g ai/10a) |
| --- | --- | --- | --- | --- | --- | --- | --- | --- | --- | --- | --- | --- | --- | --- | --- | --- | --- | --- | --- | --- |
| C=CC(C)Oc1cc(-c2ccc(C(F)(F)F)n(C)c2=O)c(F)cc1Cl (centres unmarked) [Compound 1-182] | 5 | 5 | 5 | 5 | 5 | 1 | 1 | 5 | 5 | 5 | 1 | 5 | – | – | – | – | – | – | – | – |
| C#CCOc1cc(-c2ccc(C(F)(F)F)n(C)c2=O)c(Cl)cc1Cl [1-30] | 5 | 5 | 5 | 5 | 5 | 2 | – | 5 | 5 | 5 | 2 | – | 5 | 5 | 5 | 5 | 5 | 1 | 2 | 5 |
| CSCOc1cc(-c2ccc(C(F)(F)F)n(C)c2=O)c(F)cc1Cl [Compound 1-208] | 5 | 5 | 5 | 4 | 5 | 1 | 1 | 5 | 5 | 5 | 2 | 5 | – | – | – | – | – | – | – | – |
| C#CCSc1cc(-c2ccc(C(F)(F)F)n(C)c2=O)c(F)cc1Cl [1-44] | 5 | 5 | 5 | 5 | 5 | 1 | 1 | 5 | 5 | 5 | 2 | 5 | – | – | – | – | – | – | – | – |
| CCOC(=O)c1cc(-c2ccc(C(F)(F)F)n(C)c2=O)c(F)cc1Cl [1-65] | 5 | 5 | 5 | 5 | 5 | 2 | 1 | 5 | 5 | 5 | 2 | 5 | 5 | 5 | 5 | 5 | 5 | 1 | 0 | 5 |
| C=CCN1C(=O)COc2cc(Cl)c(-c3ccc(C(F)(F)F)n(C)c3=O)cc21 [Compound 2-26] | 5 | 5 | 5 | 5 | 5 | 1 | 1 | 5 | 5 | 5 | 2 | 5 | – | – | – | – | – | – | – | – |
| COc1cc(-c2ccc(C(F)(F)F)n(N)c2=O)c(F)cc1Cl [1-179] | 5 | 5 | 5 | 5 | 5 | 1 | 1 | 5 | 5 | 5 | 2 | 5 | – | – | – | – | – | – | – | – |
| Cn1c(C(F)(F)F)ccc(-c2c(F)cc(Cl)c3occc23)c1=O [Compound No. 4-28, 3-(7-chloro-5-fluorobenzofuran-4-yl)-1-methyl-6-trifluoromethyl-2-(1H)-pyridone] | – | – | – | – | – | – | 2 | 5 | 5 | 5 | 2 | 5 | 5 | 5 | 5 | 5 | 5 | 1 | – | – |
| C#CC(O)c1cc(-c2ccc(C(F)(F)F)n(C)c2=O)c(F)cc1Cl (centres unmarked) [Compound 1-202] | – | – | – | – | – | – | – | 5 | 5 | 5 | 2 | – | 5 | 5 | 5 | 5 | 5 | 1 | 1 | 5 |
| CCCc1cc2c(-c3ccc(C(F)(F)F)n(C)c3=O)c(F)cc(Cl)c2o1 [Compound 4-3] | 5 | 5 | 5 | 5 | 5 | 1 | 2 | 5 | 5 | 5 | 2 | 5 | – | – | – | – | – | – | – | – |

Reference: patent US6472348B1, “Pyridone derivatives and herbicides” (Kumiai Chemical Industry Co., Ltd., priority 1996, dated 2002)
